# “And” between values parts separate entries of the source, which are not always exact repeats. Equal entries are not always repeated.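 Briefly, cells in 96-well plates were exposed to five compound concentrations for 48 h, and endpoints were estimated by linear interpolation. Here, GI50 denotes the concentration required for 50% inhibition of growth. TGI: concentration producing complete growth inhibition.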
# Test system: SW-620 colon
# Assay: growth of human tumour cells (NCI), 48 h
Compound,TGI [µM],GI50 [µM]
CCOc1ccc(NC(=O)C(=O)CC(=O)c2c(C)n([O-])c3ccccc3[n+]2=O)cc1,> 100,
Cc1cc(Cl)ccc1NC(=O)C(=O)Cc1nc2ccccc2o1,> 100,
OCC1OC(c2nc(C3=NCCCN3)cs2)C(O)C1O (stereo not given),> 100,
Oc1cccnc1[Se],> 100,
CCC(C)COC(=O)c1ccc(N=Cc2ccc(C=Nc3ccc(C(=O)OCC(C)CC)cc3)cc2)cc1 (stereo not given),> 100,
Cc1cc(N(CCC#N)CCC#N)ccc1N=Nc1ccc(C(=O)O)cc1,> 100,
CN(C)CC1CCCC/C1=N/OC(=O)c1ccc(Cl)cc1 (stereo not given),> 100,
N#CC(C(=O)C(=O)C(C#N)c1ccc(Br)cc1)c1ccc(Br)cc1 (stereo not given),31.3,
COc1cccc(C2=NC(C(C)C)CO2)c1 (stereo not given),> 100,
O=C1/C(=C/c2cccc(Cl)c2Cl)N=C(c2ccccc2)N1C1CC1,> 50,26.7
CCOC(=O)C(=[N+]=[N-])[Si](C)(C)C,> 100,
O=C(CC1(O)C(=O)N(Cc2ccccc2)c2ccc(F)cc21)c1ccc(C(=O)NCC2CCC3(CC2)OOC2(CCCCC2)OO3)cc1 (stereo not given),4.3,1.84
COc1cc2c3c(n(C)c(=O)c2cc1OC)-c1cc2c(cc1/C3=C\CN)OCO2,> 41.3,
CCCc1nc(NC#N)nc(C(=O)Nc2ccccc2)c1CC,> 100,
O=C(CCc1n[nH]c(=S)o1)Nc1ccccc1C(F)(F)F,49,
CCn1c2ccccc2c2cc(NC(=O)Nc3ccc([N+](=O)[O-])cc3C)ccc21,48.1,3.38

Compound,TGI [µM],GI50 [µM]
Cc1ccc(NC(=O)CCc2cc(C(C)(C)C)nc(=S)[nH]2)cc1C,> 100,
Cc1[nH]c2ccccc2c1C(=O)/C=C/c1ccccc1O,> 100,
O=C(Nc1nc(=S)c2c(ncn2CCOC(=O)c2ccccc2)[nH]1)c1ccccc1,> 100,
COc1ccc(CC2NCCc3c2[nH]c2ccccc32)cc1 (stereo not given),> 100,
CCOc1ccc(NC(=O)CC#N)cc1,> 100,
O=C(/C=C/c1cccc2ccccc12)c1ccccc1Cl,17.6,
COc1ccc2c(c1)C(=O)c1c-2c(N2CCN(C(=O)CNCCNCCO)CC2)nc2ccccc12,3.28,1.73
COc1ccc(Nc2nnc(-c3cc(O)ccc3O)s2)cc1,22.8,11.3
Cc1ccc(/C=C/C(=O)c2sc(-c3nc(C)c(C(=O)/C=C/c4ccc(C)cc4)s3)nc2C)cc1,> 100,
O=C1/C(=C/c2ccc(Cl)cc2)CCC1CCN1CCOCC1 (stereo not given),> 100,
Cn1cc(-c2csc(-c3c[nH]c4ccc(F)cc34)n2)c2cnccc21,4.09,2.12
CCC[CH2][Sn]([Cl])([CH2]CCC)[CH2]CCC,0.273,0.125
O=c1ccn([C@H]2CSC[C@@H](CO)C2)c(=O)[nH]1,> 100,
COc1cc(-n2cc(-c3ccc(F)cc3)[nH]c2=O)cc(OC)c1OC,> 100,> 100
C1CN2CCN3CCN4CCN1[P+]243,> 100,

# Test system: M14 melanoma
# Assay: growth of human tumour cells (NCI), 48 h
Compound,GI50,TGI [µM]
CN(C)CC[PH+](c1ccccc1)c1ccccc1.CN(C)CC[PH+](c1ccccc1)c1ccccc1.[Cl-].[Pd+2],> 100 µM,> 100
COc1cc(NCc2ccc3nc(N)nc(N)c3c2C)cc(OC)c1OC (tested in a mixture with another compound),0.0222 µM and 0.025 µM,
Cc1nn(-c2ccc(Cl)cc2)c2nc3c(nc12)C(=O)c1ccccc1-3,> 100 µM,> 100
O=C(c1ccccc1)c1cc2ccccc2o1,> 100 µM,> 100
O=C(Nc1ccncc1)C(=O)c1cn(S(=O)(=O)c2ccc(F)cc2)c2ccccc12,1.78 µM,> 100
COc1ccc(NC(=O)/C(Cc2cc(=O)oc3cc(O)ccc23)=N\NC(C)(C)C)c(OC)c1,,> 100
Nc1nc(/C=C\c2ccc([N+](=O)[O-])s2)nc(N2CCCC2)n1,3.72 µM,17.1
O=C1/C(=C/c2ccc3c(c2)OCO3)SC2C=Nc3ccccc3N12 (stereo not given),,> 100
CCOc1ccc(NC(=O)C(=O)CC(=O)c2c(C)n([O-])c3ccccc3[n+]2=O)cc1,,> 100
Cc1cc(Cl)ccc1NC(=O)C(=O)Cc1nc2ccccc2o1,,> 100
OCC1OC(c2nc(C3=NCCCN3)cs2)C(O)C1O (stereo not given),,> 100
Oc1cccnc1[Se],,67.9
CCC(C)COC(=O)c1ccc(N=Cc2ccc(C=Nc3ccc(C(=O)OCC(C)CC)cc3)cc2)cc1 (stereo not given),,> 100
Cc1cc(N(CCC#N)CCC#N)ccc1N=Nc1ccc(C(=O)O)cc1,,> 100
CN(C)CC1CCCC/C1=N/OC(=O)c1ccc(Cl)cc1 (stereo not given),,> 100
N#CC(C(=O)C(=O)C(C#N)c1ccc(Br)cc1)c1ccc(Br)cc1 (stereo not given),,31.6
COc1cccc(C2=NC(C(C)C)CO2)c1 (stereo not given),,> 100

Compound,GI50,TGI [µM]
O=C(CC1(O)C(=O)N(Cc2ccccc2)c2ccc(F)cc21)c1ccc(C(=O)NCC2CCC3(CC2)OOC2(CCCCC2)OO3)cc1 (stereo not given),2.02 µM,6.63
CCCc1nc(NC#N)nc(C(=O)Nc2ccccc2)c1CC,,> 100
O=C(CCc1n[nH]c(=S)o1)Nc1ccccc1C(F)(F)F,,> 100
CCn1c2ccccc2c2cc(NC(=O)Nc3ccc([N+](=O)[O-])cc3C)ccc21,6.21 µM,64.1
Cc1ccc(NC(=O)CCc2cc(C(C)(C)C)nc(=S)[nH]2)cc1C,,> 100
Cc1[nH]c2ccccc2c1C(=O)/C=C/c1ccccc1O,,> 100
O=C(Nc1nc(=S)c2c(ncn2CCOC(=O)c2ccccc2)[nH]1)c1ccccc1,,> 100
COc1ccc(CC2NCCc3c2[nH]c2ccccc32)cc1 (stereo not given),,> 100
CCOc1ccc(NC(=O)CC#N)cc1,,> 100
O=C(/C=C/c1cccc2ccccc12)c1ccccc1Cl,,29.3
COc1ccc2c(c1)C(=O)c1c-2c(N2CCN(C(=O)CNCCNCCO)CC2)nc2ccccc12,1.82 µM,3.33
COc1ccc(Nc2nnc(-c3cc(O)ccc3O)s2)cc1,> 50 µM,> 50
O=C1/C(=C/c2ccc(Cl)cc2)CCC1CCN1CCOCC1 (stereo not given),,> 100
Cn1cc(-c2csc(-c3c[nH]c4ccc(F)cc34)n2)c2cnccc21,1.74 µM,3.27
CCC[CH2][Sn]([Cl])([CH2]CCC)[CH2]CCC,0.162 µM,0.308
O=c1ccn([C@H]2CSC[C@@H](CO)C2)c(=O)[nH]1,,> 100
C1CN2CCN3CCN4CCN1[P+]243,,> 100

# Test system: PC-3 prostate
# Assay: growth of human tumour cells (NCI), 48 h
Compound,GI50 [µM],TGI [µM]
CN(C)CC[PH+](c1ccccc1)c1ccccc1.CN(C)CC[PH+](c1ccccc1)c1ccccc1.[Cl-].[Pd+2],> 100,> 100
COc1cc(NCc2ccc3nc(N)nc(N)c3c2C)cc(OC)c1OC (tested in a mixture with another compound),,37.4
O=C(c1ccccc1)c1cc2ccccc2o1,85.2,> 100
O=C(Nc1ccncc1)C(=O)c1cn(S(=O)(=O)c2ccc(F)cc2)c2ccccc12,4.45,> 100
Nc1nc(/C=C\c2ccc([N+](=O)[O-])s2)nc(N2CCCC2)n1,3.92,21.9
Oc1cccnc1[Se],,> 100
O=C1/C(=C/c2cccc(Cl)c2Cl)N=C(c2ccccc2)N1C1CC1,8.85,17.2
O=C(CC1(O)C(=O)N(Cc2ccccc2)c2ccc(F)cc21)c1ccc(C(=O)NCC2CCC3(CC2)OOC2(CCCCC2)OO3)cc1 (stereo not given),0.99,3.21
COc1cc2c3c(n(C)c(=O)c2cc1OC)-c1cc2c(cc1/C3=C\CN)OCO2,7.03,> 100
CCn1c2ccccc2c2cc(NC(=O)Nc3ccc([N+](=O)[O-])cc3C)ccc21,2.73,10.8
COc1ccc2c(c1)C(=O)c1c-2c(N2CCN(C(=O)CNCCNCCO)CC2)nc2ccccc12,5.57,18.7
COc1ccc(Nc2nnc(-c3cc(O)ccc3O)s2)cc1,34.4,> 50
Cn1cc(-c2csc(-c3c[nH]c4ccc(F)cc34)n2)c2cnccc21,1.69,3.61
COc1cc(-n2cc(-c3ccc(F)cc3)[nH]c2=O)cc(OC)c1OC,> 100,> 100
